What was measured:
Type in all cases: cell-based
[1] = molecular target: T1, PAR2 (HT-29 cells) (Homo sapiens, UniProt P55085); test: Ca FLIPR TETRA assay, ANTAGONIST mode, activator 8 μM SLIGKV; conditions: HT-29 cells; activator 8 μM SLIGKV; Method A: maximal concentration of antagonist 0.1, 1 or 2 μM
T1 construct: host or cells: HT-29
T1 sequence (P55085 26-397): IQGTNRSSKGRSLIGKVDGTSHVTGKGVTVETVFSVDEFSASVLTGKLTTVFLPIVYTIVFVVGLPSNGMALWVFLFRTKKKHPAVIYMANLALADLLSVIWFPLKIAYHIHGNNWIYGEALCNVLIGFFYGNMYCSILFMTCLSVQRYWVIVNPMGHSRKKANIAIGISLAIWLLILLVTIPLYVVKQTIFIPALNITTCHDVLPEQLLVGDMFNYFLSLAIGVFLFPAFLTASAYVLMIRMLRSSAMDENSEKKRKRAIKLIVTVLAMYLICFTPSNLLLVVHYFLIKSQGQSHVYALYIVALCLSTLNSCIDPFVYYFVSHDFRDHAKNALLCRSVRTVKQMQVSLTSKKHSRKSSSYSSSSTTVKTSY
In short: (§1)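 Ca2+ flux by FLIPR Tetra in HT-29 cells after 30 min r.t. compound preincubation, followed by stimulation with SLIGKV 8 μM, thrombin 1 U/mL, trypsin 3.1 U/mL or UTP 0.6 μM (final). Cells were dye-loaded with calcium 5 beforehand; compound-only responses were also read.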

[2] = molecular target: T1, PAR2 (HT-29 cells); test: Ca FLIPR TETRA assay, ANTAGONIST mode, activator 3.1 U/mL trypsin; conditions: HT-29 cells; activator 3.1 U/mL trypsin; Method A: maximal concentration of antagonist 0.1, 1 or 2 μM
In short: as §1

[3] = tested on: Thrombin-stimulated Ca2+ response in HT-29 cells; test: Ca FLIPR TETRA assay, ANTAGONIST mode, activator 1 U/mL Thrombin; conditions: HT-29 cells, activator 1 U/mL Thrombin
In short: as §1

[4] = tested on: UTP-stimulated Ca2+ response in HT-29 cells; test: Ca FLIPR TETRA assay, ANTAGONIST mode, activator 0.6 μM UTP; conditions: HT-29 cells, activator 0.6 μM UTP
In short: as §1

Structure (SMILES)	IC50 [1] [nM]	IC50 [2] [nM]	IC50 ([3]; Homo sapiens) [nM]	IC50 ([4]; Homo sapiens) [nM]	IC50 [3] [nM]	IC50 [4] [nM]
CC(C)(C)c1cc(-c2ccc(Cl)c(F)c2)nc2cc(C(=O)N3CCNC(=O)CC3(C)C)oc12 [Example I-336]	6.3	9.6	> 2000	> 2000		
CC(C)(C)c1cc(-c2ccc(Cl)cc2)nc2cc(C(=O)N3CCN(C(=O)CC4(C(=O)O)CCC4)CC3(C)C)oc12 [Example I-337]	0.4	0.9	> 2000	> 2000		
CC1(C)CCC(c2cc(C(C)(C)C)c3oc(C(=O)N4CCN(C(=O)CC5(C(=O)O)CCC5)CC4(C)C)cc3n2)CC1 [Example I-338]	0.3	0.5	> 2000	> 2000		
Cc1ccnc(N2CCN(C(=O)c3cc4nc(C5CCC(C)(C)CC5)cc(C(C)(C)C)c4o3)C(C)(C)C2=O)n1 [Example I-339]	1.3	3.1	> 2000	> 2000		
Cc1ccnc(N2CCN(C(=O)c3cc4nc(-c5ccc(Cl)cc5)cc(C(C)(C)C)c4o3)C(C)(C)C2=O)n1 [Example I-340]	0.9	1.7	> 2000	> 2000		
CC(C)(C)c1cc(-c2ccc(Cl)cc2)nc2cc(C(=O)N3CCN(c4ncc(-c5nnn[nH]5)cn4)CC3(C)C)oc12 [Example I-341]	1.6	4.4	> 2000	1700		
Cn1nccc1S(=O)(=O)N1CCN(C(=O)c2cc3nc(-c4ccc(Cl)c(F)c4)cc(C(C)(C)C)c3o2)C(C)(C)C1=O [Example I-342]	94	90	> 2000	> 2000		
CC(C)[C@H](CC(=O)N1CCN(C(=O)c2cc3nc(-c4ccc(Cl)c(F)c4)cc(C(C)(C)C)c3o2)C(C)(C)C1)C(=O)O [Example I-343]	0.2	0.4	1700	2100		
CC(C)(C)c1cc(-c2ccc(Cl)c(F)c2)nc2cc(C(=O)N3CCN(c4cccc(-c5nnn[nH]5)n4)CC3(C)C)oc12 [Example I-344]	0.1	0.2	> 2000	> 2000		
CC1(C)CCC(c2cc(C(C)(C)C)c3oc(C(=O)N4CCN(c5cccc(-c6nnn[nH]6)n5)CC4(C)C)cc3n2)CC1 [Example I-345]	0.3	0.7	> 2000	> 2000		
CC1(C)CCC(c2cc(C(C)(C)C)c3oc(C(=O)N4CCN(c5ncc(-c6nnn[nH]6)cn5)CC4(C)C)cc3n2)CC1 [Example I-346]	1.6	4.1	2100	1000		
CN(CC(=O)O)CC(=O)N1CCN(C(=O)c2cc3nc(-c4ccc(Cl)cc4)cc(C(C)(C)C)c3o2)C(C)(C)C1 [Example I-347]	290	500	> 2000	> 2000		
CC(C)(C)c1cc(-c2ccc(Cl)c(F)c2)nc2cc(C(=O)N3CCN(c4ccnnc4)CC3(C)C)oc12 [Example I-348]	67	38	> 2000	> 2000		
CC(C)(C)c1cc(-c2ccc(Cl)cc2)nc2cc(C(=O)N3CCN(c4ccnnc4)CC3(C)C)oc12 [Example I-349]	80	75	> 2000	> 2000		
CC(C)(C)c1cc(-c2ccc(Cl)cc2)nc2cc(C(=O)N3CCN(c4cccc(-c5nnn[nH]5)n4)CC3(C)C)oc12 [Example I-350]	0.08	0.3	> 2000	> 2000		
CC(C)(C)c1cc(-c2ccc(Cl)c(F)c2)nc2cc(C(=O)N3CCN(c4ncccc4C(=O)O)CC3(C)C)oc12 [Example I-351]	5.1	9	> 2000	> 2000		
Cc1ccc(C(=O)O)c(N2CCN(C(=O)c3cc4nc(-c5ccc(Cl)c(F)c5)cc(C(C)(C)C)c4o3)C(C)(C)C2)n1 [Example I-352]	2.1	3.1	> 2000	2000		
CC(C)(C)c1cc(-c2ccc(Cl)c(F)c2)nc2cc(C(=O)N3CCN(S(C)(=O)=O)C(=O)C3(C)C)oc12 [Example I-353]	38	34	> 2000	> 2000		
CC1(C)CCC(c2cc(C(C)(C)C)c3oc(C(=O)N4CCN(C(=O)CCC(C)(C)C(=O)O)CC4(C)C)cc3n2)CC1 [Example I-354]	0.3	0.4	> 2000	> 2000		
Cc1ccc(N2CCN(C(=O)c3cc4nc(-c5ccc(Cl)c(F)c5)cc(C(C)(C)C)c4o3)C(C)(C)C2=O)nn1 [Example I-355]	14	16	> 2000	> 2000		
Cn1cc(N2CCN(C(=O)c3cc4nc(-c5ccc(Cl)c(F)c5)cc(C(C)(C)C)c4o3)C(C)(C)C2=O)nn1 [Example I-356]	12	14.1	> 2000	> 2000		
CC(C)(C)c1cc(-c2ccc(Cl)c(F)c2)nc2cc(C(=O)N3CCN(c4cccnn4)C(=O)C3(C)C)oc12 [Example I-357]	8.3	10	> 2000	> 2000		
Cc1nccnc1N1CCN(C(=O)c2cc3nc(-c4ccc(Cl)c(F)c4)cc(C(C)(C)C)c3o2)C(C)(C)C1=O [Example I-359]	37	43	> 2000	> 2000		
CC(C)(C)c1cc(-c2ccc(Cl)c(F)c2)nc2cc(C(=O)N3CCN(c4cnccn4)C(=O)C3(C)C)oc12 [Example I-360]	2.4	3.7	> 2000	> 2000		
CC(C)(C)c1cc(-c2ccc(Cl)c(F)c2)nc2cc(C(=O)N3CCN(c4ncccn4)C(=O)C3(C)C)oc12 [Example I-361]	2.8	4.6	> 2000	> 2000		
CC(C)(C)c1cc(-c2ccc(Cl)c(F)c2)nc2cc(C(=O)N3CCN(C(=O)C4CC5(CC(C(=O)O)C5)C4)C(=O)C3(C)C)oc12 (stereo not drawn) [Example I-362]	0.7	1			> 1100	> 1100
CC(C)(C)c1cc(-c2ccc(Cl)c(F)c2)nc2cc(C(=O)N3CCc4cnc(CC(=O)O)nc4C3(C)C)oc12 [Example I-363]	0.6	0.9	> 2000	> 2000		
CC1(C)CCC(c2cc(C(C)(C)C)c3oc(C(=O)N4CCN(C(=O)C5CC6(CC(C(=O)O)C6)C5)CC4(C)C)cc3n2)CC1 (stereo not drawn) [Example I-364]	1.2	1.2	> 2000	1700		
CC(C)(C)c1cc(-c2ccc(Cl)c(F)c2)nc2cc(C(=O)N3CCN(c4nc(C(=O)O)ccc4Cl)CC3(C)C)oc12 [Example I-365]	0.2	0.3	> 2000	> 2000		
CC(C)(CCC(=O)N1CCN(C(=O)c2cc3nc(-c4ccc(Cl)cc4)cc(C(C)(C)C)c3o2)C(C)(C)C1)C(=O)O [Example I-366]	0.8	1.1	> 2000	> 2000		

Source: patent US20180057505A1, “BICYCLIC HETEROARYL COMPOUNDS USEFUL AS INHIBITORS OF THE PAR-2 SIGNALING PATHWAY” (VERTEX PHARMACEUTICALS INCORPORATED, priority 2015, published 2018)
